These results are taken from patent publication US20250066389A1, “HETEROCYCLIC AMIDES AND METHODS OF USING THE SAME” (Rgenta Therapeutics, Inc., priority 2021, published 2025).

By IC50 is commonly meant the concentration at which inhibition is half-maximal. High values mean weaker potency in that assay, low ones greater potency in that assay.

The test relates to PMS1. The test can be described thus: Mini-Gene Reporter Assay—PMS1 (firefly luciferase mini-gene reporter transiently transfected into HEK293 cells). The test is classed as cell-based. Conditions: Homo sapiens, mini-gene firefly luciferase reporter in HEK293 cells; for activation at 5 µM: read-out: PMS1 % Effect at 5 uM. The gist of the method:
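HEK293 cells transiently transfected with a mini-gene construct (skipped exon with flanking introns/exons fused to firefly luciferase, pcDNA3.1) are incubated with compounds in duplicate. Exon inclusion raises luminescence; EC50 fitted by Levenberg-Marquardt; effect also scored at 5 μM.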
On the technique in general: In a reporter assay the amount or activity of a reporter protein is the signal.

For `CCOc1cc2nn(C)cc2cc1C(=O)Nc1cnc(N2CCCNCC2)nc1` [Compound 485], the activation at 5 µM was < 50%.
Turning to `CCOc1cn2nc(C)cc2cc1C(=O)Nc1cnc(N2CCNC(CC(F)(F)F)C2)cn1` (centres unmarked) [Compound 490], the activation at 5 µM lay in the range of 50 to 75%.
Take `CCNC1CCN(c2ccc(NC(=O)c3cn4cc(C)nc4cc3OCC)nn2)C1` (centres unmarked) [Compound 244]: the IC50 is < 1000 nM.
On to `CCOc1cc2nc(C)cn2cc1C(=O)Nc1ccc(N(C)C2CCNCC2)nn1` [Compound 292], for which the IC50 was in the range of 1000 to 10000 nM.
Take `CCOc1cc2nn(C)cc2cc1C(=O)Nc1cnc(NCC2COCCN2)cn1` (centres unmarked) [Compound 349]: the activation at 5 µM is < 50%.
